Experimental data: patent US8389538B2, “Rexinoid compound having alkoxy group” (National University Corporation Okayama University, priority 2007, dated 2013)
Read-outs that look alike come from different tables or passages of the source.

How the values were obtained:
[1] = tested on: Human leukemia cell strain HL-60; assay: HL-60 differentiation induction (NBT reduction method); format: cell-based; details: for Retinoid synergistic activity BA(%) / Retinoid activity BA(%): maximum differentiation inducing rate relative to total cell number
Protocol: Human leukemia cell strain HL-60 differentiates into granulocytes (neutrophils) to come to have an ability to express active oxygen. […] A method for measuring differentiation inducibility of cells into granulocytes by using this principle is referred to as NBT reduction method. So, the differentiation inducibility of the synthesized compound was measured by NBT reduction method. […] Each compound was dissolved in dimethylsulfoxide (DMSO) into 20 mM to prepare a stock solution. NBT was prepared into 0.2 w/v % by using PBS (−) 2 hours before use and incubated at 37° C. TPA was dissolved in ethanol (EtOH) into 2 mg/mL to prepare a stock solution. This TPA solution was prepared into 20 μg/mL by using PBS (−) at the time of use. […] The action of RXR agonist is enhanced by the combined use of that and RAR agonist. […] After four days cultivation, cells were collected by centrifugation (4° C., 1500 rpm, 5 minutes). After these cells were seeded onto 1 mL of a fresh growth medium, then 1 mL of 0.2 w/v % NBT solution and 20 μl of 20 μg/ml of TPA solution were added, and incubation was carried out in the incubator containing 5% CO2 at 37° C. for 30 minutes. Then, stained cell number and total cell number were counted on a cell counter. Meanwhile, the measurement was conducted three times by counting 200 cells or more at a time and a differentiation inducing rate was calculated from a mean value obtained by averaging them. […] Meanwhile, “inert” means that differentiation inducibility can not be observed even at 10 μM. Likewise, b) BA (bioactivity) (%) refers to the maximum differentiation inducing rate relative to the total cell number in this test.

RXRα = biological target: T1, RXRα (Homo sapiens, UniProt P19793); assay: RXR reporter gene assay (luciferase) in COS-1 cells, RXRα; format: cell-based; details: for Emax: COS-1; for EC50 / RXRα Emax (%): COS-1 cells; for EC50: half of maximum transcriptional activation potential; for RXRα Emax (%): relative to PA024 (1 μM) = 100%
T1 construct: expressed in transfected cells; host or cells: COS-1 cells
T1 sequence (P19793 1-462): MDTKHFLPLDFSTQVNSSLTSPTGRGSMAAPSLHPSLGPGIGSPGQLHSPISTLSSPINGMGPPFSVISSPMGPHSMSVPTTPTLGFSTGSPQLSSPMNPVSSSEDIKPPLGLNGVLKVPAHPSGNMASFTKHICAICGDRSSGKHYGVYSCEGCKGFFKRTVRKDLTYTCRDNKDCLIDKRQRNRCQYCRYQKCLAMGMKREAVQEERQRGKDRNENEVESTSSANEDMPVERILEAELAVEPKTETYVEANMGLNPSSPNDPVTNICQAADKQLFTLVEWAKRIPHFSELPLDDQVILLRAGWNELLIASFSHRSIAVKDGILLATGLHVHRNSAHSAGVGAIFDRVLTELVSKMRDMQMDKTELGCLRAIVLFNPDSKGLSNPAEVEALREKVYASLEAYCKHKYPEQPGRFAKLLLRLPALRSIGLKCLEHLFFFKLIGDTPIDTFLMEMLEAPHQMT
Protocol: (§1) Most of nuclear receptors are transcription factors associated with regulating transcription, so that reporter gene assay is conducted as a means of measuring its transcription activity. An expression plasmid for RXR receptor protein and a reporter plasmid were introduced into cells such as COS-1 cells and HeLa cells to cause overexpression. And, when RXR agonist is bound to the receptor, transcription is induced in a ligand dependent manner, and a protein which is referred to as fusion protein downstream is produced. The binding of this fusion protein to the binding site on the reporter plasmid initiates the transcription to produce luciferase downstream. RXR agonistic activity was measured by measuring this luciferase activity.
(§2) Dulbecco's Modified Eagle MEM medium (DMEM) was used as growth medium.
(§3) Passage was conducted by removing culture supernatant from the cell culture grown in a 100 mm culture dish, collecting cells by trypsinization, centrifuging at 1000 rpm at 4° C. for 3 minutes, then dispersing cells by adding growth medium and growing them in a 100 mm culture dish (15 mL of growth medium) at 37° C. in the presence of 5% CO2.
(§4) Transformation was conducted using Effectene™ Transfection Reagent (QIAGEN). Further, Luciferase Assay System was used for evaluating luciferase activity. Am80 was used for the positive control of RAR, and 9-cis retinoic acid was used for the positive control of RXR. They were dissolved in DMSO for use as a stock solution and measured on every plate to be assayed.
(§5) • On day 1: COS-1 cells were seeded along with 15 mL of growth medium in a 60 mm culture dish at 50×10^4 cells and were cultured over night. • On day 2: Transformation was conducted by lipofection using Effectene™ Transfection Reagent. • On day 3: 16 to 18 hours later, the culture supernatant was removed, cells were collected by trypsinization, centrifugation was conducted at 1000 rpm at 4° C. for 3 minutes, then cells were dispersed by adding growth medium, and then the cells were seeded on a 96-well white plate at 2.0×10^4 cells/well. Then, each compound was added at DMSO concentration of 1% or below. • On day 4: 24 hours later, 25 μL of the supernatant was used for SEAP measurement, and the rest cell-containing solution was used for measuring luciferase activity.
(§6) In Table 5, a) EC50 indicated a concentration giving the half of the maximum transcriptional activation potential.

RXRβ = biological target: T2, RXRβ (Homo sapiens, UniProt P28702); assay: RXR reporter gene assay (luciferase) in COS-1 cells, RXRβ; format: cell-based; details: for Emax: COS-1; for EC50 / RXRβ Emax (%): COS-1 cells; for EC50: half of maximum transcriptional activation potential; for RXRβ Emax (%): relative to PA024 (1 μM) = 100%
T2 construct: expressed in transfected cells; host or cells: COS-1 cells
T2 sequence (P28702 1-533): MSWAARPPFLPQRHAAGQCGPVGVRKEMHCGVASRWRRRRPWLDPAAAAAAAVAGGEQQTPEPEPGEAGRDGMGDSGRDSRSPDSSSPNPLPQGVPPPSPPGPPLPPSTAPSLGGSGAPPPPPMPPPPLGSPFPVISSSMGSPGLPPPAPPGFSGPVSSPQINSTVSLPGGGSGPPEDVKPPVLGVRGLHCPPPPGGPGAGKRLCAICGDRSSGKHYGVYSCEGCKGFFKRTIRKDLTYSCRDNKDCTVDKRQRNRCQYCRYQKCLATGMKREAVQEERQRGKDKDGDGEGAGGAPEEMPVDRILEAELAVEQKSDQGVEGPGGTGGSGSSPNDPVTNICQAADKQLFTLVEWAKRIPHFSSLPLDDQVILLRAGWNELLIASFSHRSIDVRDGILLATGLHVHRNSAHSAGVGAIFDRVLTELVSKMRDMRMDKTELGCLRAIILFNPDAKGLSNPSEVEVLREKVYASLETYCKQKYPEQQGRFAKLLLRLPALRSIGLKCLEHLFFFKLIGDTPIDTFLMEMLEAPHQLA
Protocol: as §1, §2, §3, §4, §5, §6

RXRγ = biological target: T3, RXRγ (Homo sapiens, UniProt P48443); assay: RXR reporter gene assay (luciferase) in COS-1 cells, RXRγ; format: cell-based; details: for Emax: COS-1; for EC50 / RXRγ Emax (%): COS-1 cells; for EC50: half of maximum transcriptional activation potential; for RXRγ Emax (%): relative to PA024 (1 μM) = 100%
T3 construct: expressed in transfected cells; host or cells: COS-1 cells
T3 sequence (P48443 1-463): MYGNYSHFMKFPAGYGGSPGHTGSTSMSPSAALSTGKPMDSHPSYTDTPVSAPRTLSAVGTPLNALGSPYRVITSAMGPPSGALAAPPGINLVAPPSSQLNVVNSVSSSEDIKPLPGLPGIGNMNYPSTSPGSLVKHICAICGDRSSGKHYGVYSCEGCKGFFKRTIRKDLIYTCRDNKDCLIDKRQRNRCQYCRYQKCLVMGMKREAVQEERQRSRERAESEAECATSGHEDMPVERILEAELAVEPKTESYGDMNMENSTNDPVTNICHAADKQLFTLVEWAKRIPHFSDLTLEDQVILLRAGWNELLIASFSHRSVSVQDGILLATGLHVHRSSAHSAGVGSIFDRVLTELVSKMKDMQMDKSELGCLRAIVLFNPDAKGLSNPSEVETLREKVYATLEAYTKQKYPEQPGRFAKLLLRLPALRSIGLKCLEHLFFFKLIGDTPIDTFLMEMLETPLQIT
Protocol: as §1, §2, §3, §4, §5, §6

[2] = tested on: edema induced by carrageenin; assay: Carrageenin edema test; format: in vivo; details: rats, 10 mg/kg oral, 3 hours before carrageenin; 3 hours after the administration of carrageenin; hind foot pads
Protocol: Carrageenin edema test was used for anti-inflammatory test by using rats. 10 mg/kg compound 1a (NEt-3IP) was orally administered to five rats in a group, and then 3 hours later, 1% carrageenin solution, which was an edema-inducing substance, was subcutaneously administered to the hind foot pads (0.1 mL/rat). Then, 1, 2, 3 and 4 hours after that, the thickness of edema of the hind foot pads was measured. […] The rate of inhibiting edema was 27% 3 hours after the administration of carrageenin.

[3] = tested on: Histone Deacetylase (HDAC); assay: HDAC Activity/Inhibitor Screening Assay Kit (Cayman); format: biochemical; details: at 100 μM
Protocol: Activity Evaluation Method 3: Histone Deacetylase (HDAC) Inhibitory Activity
HDAC inhibitory activity was evaluated for compounds represented by formulae XVII and XVIII, through the use of HDAC Activity/Inhibitor Screening Assay Kit supplied by Cayman and according to that protocol.

[4] = Am80 present at 3.3×10^−10 M, half of maximum differentiation inducing rate, read-out: Retinoid synergistic activity SEC50
[5] = test compound alone, concentration giving half of maximum differentiation inducing rate, four days culture, read-out: Retinoid activity EC50
[6] = Homo sapiens, HL-60, 96 h, test compound alone, concentration giving half of maximum differentiation inducing rate, four days culture, read-out: Retinoid activity EC50

SMILES	EC50 [1, 4] [µM]	EC50 [1, 5] [µM]	EC50 (RXRα) [µM]	EC50 (RXRβ) [µM]	EC50 (RXRγ) [µM]	Retinoid synergistic activity BA(%) ([1]; Am80 present at 3.3×10^−10 M)	Retinoid activity BA(%) ([1]; test compound alone)	other results
CC(C)Oc1cc(Nc2ccc(C(=O)O)cn2)ccc1C(C)C [Compound 1c]	4.5	> 10				63	24	
CCN(c1ccc(C(C)C)c(OC(C)C)c1)c1ccc(C(=O)O)cn1 [Compound 1a]	0.01		0.027	0.035	> 0.38	80	4	EC50 [1, 6]: > 10 µM; Emax (RXRα): 130%; selectivity for RXRα/β over RXRγ (RXRα; reporter gene assay, RXRα/β versus RXRγ): ≥ 10 times; Emax (RXRβ): 110%; Emax (RXRγ): > 88%; rate of inhibiting edema [2]: 27%
CC(C)Oc1cc(N(c2ccc(C(=O)O)cn2)S(C)(=O)=O)ccc1C(C)C [Compound 1b]	0.9	> 10				63	44	
CCN(c1ccc(C(C)C)c(OC(C)C)c1)c1ccc(/C=C/C(=O)O)cn1 [XVII]								HDAC activity inhibition rate [3]: 78%
CCCOc1cc(N(c2ccc(C(=O)O)cn2)S(C)(=O)=O)ccc1C(C)C [Compound 2b]	0.8	> 10				63	50	
CCCOc1cc(N(CC)c2ccc(C(=O)O)cn2)ccc1C(C)C [Compound 2a]	0.023	> 10				74	4	
CCCOc1cc(Nc2ccc(C(=O)O)cn2)ccc1C(C)C [Compound 2c]	4.3	> 10				60	50	

More lines, main results first:

EC50 [1, 4] [µM]	EC50 [1, 5] [µM]	EC50 (RXRα) [µM]	EC50 (RXRβ) [µM]	EC50 (RXRγ) [µM]	SMILES	Retinoid synergistic activity BA(%) ([1]; Am80 present at 3.3×10^−10 M)	Retinoid activity BA(%) ([1]; test compound alone)	other results
0.012		0.006	0.018	> 0.058	CCN(c1ccc(C(C)C)c(OC(C)C)c1)c1ncc(C(=O)O)cn1 [Compound 6a]	87	3	EC50 [1, 6]: > 10 µM; Emax (RXRα): 110%; Emax (RXRβ): 100%; Emax (RXRγ): 105%
0.023	> 10	> 0.66	> 1.3	> 0.35	CCN(c1ccc(OC(C)C)c(C(C)C)c1)c1ccc(C(=O)O)cn1 [Compound 4a]	64		RXRα Emax (%) (RXRα): >110%; RXRβ Emax (%) (RXRβ): >80%; RXRγ Emax (%) (RXRγ): >81%
		0.0029	0.0073	0.0049	CCN(c1ccc(C(C)C)c(OCC(C)C)c1)c1ncc(C(=O)O)cn1 [Compound 7a]			RXRα Emax (%) (RXRα): 110%; RXRβ Emax (%) (RXRβ): 140%; RXRγ Emax (%) (RXRγ): 105%
> 10	> 10				CCCOc1ccc(Nc2ccc(C(=O)O)cn2)cc1C(C)C [Compound 5c]	15	3	
> 10	> 10				CC(C)Oc1ccc(Nc2ccc(C(=O)O)cn2)cc1C(C)C [Compound 4c]	29	24	
